Laboratory results taken from patent US11919900B1 (priority 2023, dated 2024).
Values after ≈ are worked out from the molar mass of the structure shown.

Assays:
[1] = system: multidrug-resistant (MDR) strains of Mycobacterium tuberculosis; assay: microbe, parasite or virus in culture; type: cell-based; details: for MIC: Mycobacterium tuberculosis, 192 h, read-out: Antitubercular activity against Mycobacterium tuberculosis MDR (MIC)
[2] = system: extensively drug resistant (XDR) strains of Mycobacterium tuberculosis; assay: microbe, parasite or virus in culture; type: cell-based; details: 192 h, read-out: Antitubercular activity against Mycobacterium tuberculosis XDR (MIC)

Compound | MIC [1] | MIC [2] | Antitubercular activity against Mycobacterium tuberculosis MDR (MIC) ([1]; MDR-TB, drug resistance at least to isoniazid and rifampicin, REMA, 8 days at 37° C. then resazurin overnight)
COC(=O)c1c(C(=O)OC)c2c(Br)cc3ccccc3n2c1C(=O)c1ccc(OC)cc1 [QUIN-KNV1, Dimethyl 4-bromo-1-(4-methoxybenzoyl)pyrrolo[1,2-a]quinoline-2,3-dicarboxylate] | 2 µg/mL (≈ 4.03 µM) | 2 µg/mL (≈ 4.03 µM) | 
CCOC(=O)c1cc(C(=O)c2ccc(OC)cc2)n2c1c(Br)cc1ccccc12 [QUIN-KNV2, Ethyl 4-bromo-1-(4-methoxybenzoyl)pyrrolo[1,2-a]quinoline-3-carboxylate] | 4 µg/mL (≈ 8.84 µM) | 4 µg/mL (≈ 8.84 µM) | 
COC(=O)c1c(C(=O)OC)c2c(Br)cc3ccccc3n2c1C(=O)c1ccc(Cl)cc1 [QUIN-KNV3, Dimethyl 4-bromo-1-(4-chlorobenzoyl)pyrrolo[1,2-a]quinoline-2,3-dicarboxylate] | 4 µg/mL (≈ 7.99 µM) | 4 µg/mL (≈ 7.99 µM) | 
CCOC(=O)c1cc(C(=O)c2ccc(Cl)cc2)n2c1c(Br)cc1ccccc12 [QUIN-KNV4, Ethyl 4-bromo-1-(4-chlorobenzoyl)pyrrolo[1,2-a]quinoline-3-carboxylate] | 8 µg/mL (≈ 17.5 µM) |  | 
COC(=O)c1c(C(=O)OC)c2c(Br)cc3ccccc3n2c1C(=O)c1ccc(Br)cc1 [QUIN-KNV5, Dimethyl 4-bromo-1-(4-bromobenzoyl)pyrrolo[1,2-a]quinoline-2,3-dicarboxylate] | 1 µg/mL (≈ 1.83 µM) | 2 µg/mL (≈ 3.67 µM) | 
CCOC(=O)c1cc(C(=O)c2ccc(Br)cc2)n2c1c(Br)cc1ccccc12 [QUIN-KNV6, Ethyl 4-bromo-1-(4-bromobenzoyl)pyrrolo[1,2-a]quinoline-3-carboxylate] | 4 µg/mL (≈ 7.98 µM) | 4 µg/mL (≈ 7.98 µM) | 
COC(=O)c1c(C(=O)OC)c2c(Br)cc3ccccc3n2c1C(=O)c1ccc(F)cc1 [QUIN-KNV7, Dimethyl 4-bromo-1-(4-fluorobenzoyl)pyrrolo[1,2-a]quinoline-2,3-dicarboxylate] | 16 µg/mL (≈ 33 µM) |  | 
CCOC(=O)c1cc(C(=O)c2ccc(F)cc2)n2c1c(Br)cc1ccccc12 [QUIN-KNV8, Ethyl 4-bromo-1-(4-fluorobenzoyl)pyrrolo[1,2-a]quinoline-3-carboxylate] | 4 µg/mL (≈ 9.09 µM) | 4 µg/mL (≈ 9.09 µM) | 
COC(=O)c1c(C(=O)OC)c2c(Br)cc3ccccc3n2c1C(=O)c1ccc(C#N)cc1 [QUIN-KNV9, Dimethyl 4-bromo-1-(4-cyanobenzoyl)pyrrolo[1,2-a]quinoline-2,3-dicarboxylate] | 8 µg/mL (≈ 16.3 µM) | 16 µg/mL (≈ 32.6 µM) | 
CCOC(=O)c1cc(C(=O)c2ccc(C#N)cc2)n2c1c(Br)cc1ccccc12 [QUIN-KNV10, Ethyl 4-bromo-1-(4-cyanobenzoyl)pyrrolo[1,2-a]quinoline-3-carboxylate] | 16 µg/mL (≈ 35.8 µM) |  | 
COC(=O)c1c(C(=O)OC)c2c(Br)cc3ccccc3n2c1C(=O)c1ccccc1 [QUIN-KNV11, Dimethyl 1-benzoyl-4-bromopyrrolo[1,2-a]quinoline-2,3-dicarboxylate] | 16 µg/mL (≈ 34.3 µM) |  | 
Ethyl 4-bromo-1-(2-nitrobenzoyl)pyrrolo[1,2-a]quinoline-3-carboxylate [QUIN-KNV12] |  |  | 8 µg/mL
